Publication PMC9572521, “Synthesis, Docking Studies and Pharmacological Evaluation of Serotoninergic Ligands Containing a 5-Norbornene-2-Carboxamide Nucleus” (Molecules, 2022)
Read-outs that look alike come from different tables or passages of the source.

Legend:
5-HT1A receptor = target: T1, 5-HT1A receptor (Rattus norvegicus, UniProt P19327); test: Functional 5-HT1A receptor [35S]GTPγS assay (agonist mode); type: biochemical; settings: [35S]GTPγS;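 also: male Sprague-Dawley rat hippocampal membranes incubated 90 min at 37 °C, bound label counted by scintillation after filtration, non-specific binding defined with 100 µM unlabeled GTPγS, one-site curve fit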
T1 construct: 15 μg/mL of hippocampus homogenate was incubated in triplicate with 0.8 nM; from tissue; host or cells: rat hippocampus homogenate
T1 sequence (P19327 1-422): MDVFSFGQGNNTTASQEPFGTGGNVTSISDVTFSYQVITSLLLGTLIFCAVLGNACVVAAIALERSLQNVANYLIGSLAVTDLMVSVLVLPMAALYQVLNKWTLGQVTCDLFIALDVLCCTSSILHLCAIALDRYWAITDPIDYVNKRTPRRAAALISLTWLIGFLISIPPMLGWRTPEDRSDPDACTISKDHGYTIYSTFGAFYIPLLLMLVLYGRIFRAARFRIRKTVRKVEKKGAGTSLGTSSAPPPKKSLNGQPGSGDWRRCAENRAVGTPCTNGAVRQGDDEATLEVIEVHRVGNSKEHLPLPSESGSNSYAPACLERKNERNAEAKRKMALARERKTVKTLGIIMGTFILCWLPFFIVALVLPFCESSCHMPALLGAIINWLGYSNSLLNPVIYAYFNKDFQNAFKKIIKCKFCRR

D2 receptor = target: T2, D2 receptor (Rattus norvegicus, UniProt P61169); test: Functional D2 receptor [35S]GTPγS assay (antagonist mode vs dopamine; basal for agonism); type: biochemical; settings: against 40 µM dopamine, rat striatal homogenate;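 also: [35S]GTPγS binding counted by scintillation after 60 min at 30 °C, nonspecific binding defined with 100 µM unlabeled GTPγS, inhibition curves fitted by one-site nonlinear regression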
T2 construct: 15μg/mL of striatal homogenate was incubated in triplicate; from tissue; host or cells: rat striatum homogenate

5-HT2A receptor = 5-HT2A receptor (Rattus norvegicus, UniProt P14842); test: 5-HT2A competition binding assay ([3H]ketanserin, frontal cortex homogenates); settings: read-out: 5-HT2A Ki (95% CI)
human 5-HT2C receptor = target: T3, human 5-HT2C receptor (Homo sapiens, UniProt P28335); test: 5-HT2C competition binding assay ([3H]mesulergine, transfected cell membranes); settings: [3H]mesulergine, human 5-HT2C membranes
T3 sequence (P28335 33-458): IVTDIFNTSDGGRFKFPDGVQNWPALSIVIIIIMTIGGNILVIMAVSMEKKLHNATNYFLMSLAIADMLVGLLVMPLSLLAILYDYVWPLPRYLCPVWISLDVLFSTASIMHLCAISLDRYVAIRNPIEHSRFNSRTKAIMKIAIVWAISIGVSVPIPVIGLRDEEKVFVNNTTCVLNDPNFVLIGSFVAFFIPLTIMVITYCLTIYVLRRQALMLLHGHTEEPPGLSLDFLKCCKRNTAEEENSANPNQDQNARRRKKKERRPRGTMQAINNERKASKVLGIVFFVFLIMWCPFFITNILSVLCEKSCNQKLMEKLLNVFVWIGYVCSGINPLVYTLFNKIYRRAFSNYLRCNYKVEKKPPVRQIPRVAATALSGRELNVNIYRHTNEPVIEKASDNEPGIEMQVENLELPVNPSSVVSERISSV

[1] = tested on: 5-HT2A receptors (5-HT-induced contractions in the rat ileum); test: 5-HT-evoked contractions of isolated rat ileum; settings: for Emax, maximal inhibitory effect on 5-HT-induced contractions in the rat ileum: 5-HT 10^−5 M, compounds 10^−8–10^−5 M
mice [2] = test: Elevated plus-maze test (EPM); type: in vivo, mouse; settings: 5 mg/kg i.p., 60 min before the test
Description: The experiments were carried out, in the Experimental Medicine Center of Medical University of Lublin, on six-week-old naive male Swiss mice, weighing 24–30 g. The mice were housed in cages, five individuals per cage in an environmentally controlled rooms (ambient temperature 22 ± 1 °C; relative humidity 50–60%; 12 h light/dark cycle, lights on at 8:00). Standard laboratory food(LSM-Agropol-Motycz, Lublin, Poland) and filtered water were available ad libitum. All the experimental procedures were carried out, according to the National Institute of Health Guidelines for the Care and Use of Laboratory Animals and to the European Community Council Directive for the Care and Use of Laboratory Animals of 22 September 2010 (2010/63/EU) and approved by the Local Ethics Committee for Animal Experimentation in Lublin. The investigated compounds (Norbo-4, Norbo-8, Norbo-10, Norbo-14, Norbo-18 and Norbo-20) in all tests were administered intraperitoneally (i.p.), dissolved in dimethyl sulfoxide (DMSO, final concentration of 0.1%) and then diluted by aqueous solution of 0.5% methylcellulose (tylose) and injected 60 min before the tests. […] All compounds were given in a volume of 10 mL/kg to mice. The control animals received an equivalent volume of the solvent at the respective time before the tests. All the experiments were conducted in the light phase between 09.00 a.m. and 14.00 p.m. The experiments were performed by an observer unaware of the treatment administered. The EPM studies were carried out on mice according to the method of Lister. The EPM apparatus was made of plexiglass and consisted of two open (30 × 5 cm) and two enclosed (30 × 5 × 15 cm) arms. The arms extended from a central platform of 5 × 5 cm. The apparatus was mounted on a plexiglass base, raising it 38.5 cm above the floor, and illuminated by a red light. The test consisted of placing a mouse in the center of the apparatus (facing an open arm) and allowing it to freely explore. The number of entries into the open arms and the time spent in these arms were scored for a 5 min test period. An entry was defined as placing all four paws within the boundaries of the arm. The following measures were obtained from the test: the total number of arm entries; the percentage of arm entries into the open arms; and the time spent in the open arms expressed as a percentage of the time spent in both the open and closed arms. Anxiolytic activity was indicated by increases in the time spent in open arms and in the number of open arm entries. The total number of entries into either type of arm was used additionally as a measure of overall motor activity.

mice [3] = test: Forced swim test (FST, Porsolt's test); type: in vivo, mouse; settings: 15 mg/kg i.p., 60 min before the test
Description: The experiments were carried out, in the Experimental Medicine Center of Medical University of Lublin, on six-week-old naive male Swiss mice, weighing 24–30 g. The mice were housed in cages, five individuals per cage in an environmentally controlled rooms (ambient temperature 22 ± 1 °C; relative humidity 50–60%; 12 h light/dark cycle, lights on at 8:00). Standard laboratory food(LSM-Agropol-Motycz, Lublin, Poland) and filtered water were available ad libitum. All the experimental procedures were carried out, according to the National Institute of Health Guidelines for the Care and Use of Laboratory Animals and to the European Community Council Directive for the Care and Use of Laboratory Animals of 22 September 2010 (2010/63/EU) and approved by the Local Ethics Committee for Animal Experimentation in Lublin. The investigated compounds (Norbo-4, Norbo-8, Norbo-10, Norbo-14, Norbo-18 and Norbo-20) in all tests were administered intraperitoneally (i.p.), dissolved in dimethyl sulfoxide (DMSO, final concentration of 0.1%) and then diluted by aqueous solution of 0.5% methylcellulose (tylose) and injected 60 min before the tests. […] All compounds were given in a volume of 10 mL/kg to mice. The control animals received an equivalent volume of the solvent at the respective time before the tests. All the experiments were conducted in the light phase between 09.00 a.m. and 14.00 p.m. The experiments were performed by an observer unaware of the treatment administered. The experiment was carried out according to the method of Porsolt et al.. Mice were individually placed in a glass cylinder (25 cm high; 10 cm in diameter) containing water maintained at 23–25 °C, and were left there for 6 min. The total duration of immobility was recorded during the last 4 min of a 6-min test session. A mouse was regarded as immobile when it remained floating on the water, making only small movements to keep its head above the water.

[4] = rat hippocampus homogenate, ± SEM, read-out: 5-HT1A Receptor G-Protein Stimulation pEC50 (converted)
[5] = read-out: D2 receptor antagonistic activity IC50 (95% CI)
[6] = read-out: D2 receptor antagonistic activity pIC50 (M ± SEM) (converted)
[7] = rat hippocampus homogenate, read-out: 5-HT1A Receptor G-Protein Stimulation EC50 (95% CI)

Sequence of 5-HT2A receptor (P14842 whole entry): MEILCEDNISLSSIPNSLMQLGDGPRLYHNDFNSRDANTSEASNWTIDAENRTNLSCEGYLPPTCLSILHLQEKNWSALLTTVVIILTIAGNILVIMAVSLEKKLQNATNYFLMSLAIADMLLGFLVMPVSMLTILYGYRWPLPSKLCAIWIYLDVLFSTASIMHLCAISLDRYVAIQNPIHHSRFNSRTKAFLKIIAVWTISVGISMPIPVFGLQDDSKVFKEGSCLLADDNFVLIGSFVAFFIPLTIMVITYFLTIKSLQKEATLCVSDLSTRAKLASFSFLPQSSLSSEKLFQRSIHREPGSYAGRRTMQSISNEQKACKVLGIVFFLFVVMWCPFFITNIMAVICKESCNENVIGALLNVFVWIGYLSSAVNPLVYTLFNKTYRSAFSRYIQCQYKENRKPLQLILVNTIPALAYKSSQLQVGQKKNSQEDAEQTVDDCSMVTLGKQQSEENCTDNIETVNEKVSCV
T2 sequence (P61169 whole entry): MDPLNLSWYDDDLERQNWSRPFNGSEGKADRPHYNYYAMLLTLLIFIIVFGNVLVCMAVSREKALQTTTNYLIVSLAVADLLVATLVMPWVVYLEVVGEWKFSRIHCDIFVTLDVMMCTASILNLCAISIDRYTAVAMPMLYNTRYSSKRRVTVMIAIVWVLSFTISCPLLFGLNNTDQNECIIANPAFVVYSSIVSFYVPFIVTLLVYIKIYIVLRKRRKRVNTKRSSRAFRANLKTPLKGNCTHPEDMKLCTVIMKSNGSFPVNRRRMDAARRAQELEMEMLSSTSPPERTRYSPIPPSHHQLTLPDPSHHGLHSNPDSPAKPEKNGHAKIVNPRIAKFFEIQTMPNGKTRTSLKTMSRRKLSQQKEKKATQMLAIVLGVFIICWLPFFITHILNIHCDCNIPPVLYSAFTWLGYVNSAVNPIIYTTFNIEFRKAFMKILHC

SMILES	5-HT1A Receptor G-Protein Stimulation Emax (%) ± SEM (5-HT1A receptor; rat hippocampus homogenate)	EC50 (5-HT1A receptor; [4]) [µM]	IC50 (D2 receptor; [5]) [µM]	IC50 (D2 receptor; [6]) [µM]	Ki (5-HT2A receptor) [µM]	Ki (human 5-HT2C receptor; read-out: 5-HT2C Ki (95% CI)) [µM]	Emax, maximal inhibitory effect on 5-HT-induced contractions in the rat ileum [1] [%]	further results
COc1ccccc1N1CCN(CCCNC(=O)C2CC3C=CC2C3)CC1 (single isomer, unassigned) [Norbo-5, Exo-N-(3-(4-(2-methoxyphenyl)piperazin-1-yl)propyl)bicyclo[2.2.1]hept-5-ene-2-carboxamide]	140 ± 25.2 ^&& %	10	33.4	33.9	0.0457	1.82	15.42	
O=C(c1ccc(F)cc1)C1CCN(CCn2c(=O)[nH]c3ccccc3c2=O)CC1 [Ketanserin, reference compound]								effect on contractions induced by 5-HT ([1]; preliminary experiments, 0.1 µM): depressed the contractions induced by 5-HT
O=C(NCCCN1CCN(c2ccccc2F)CC1)C1CC2C=CC1C2 (stereo not drawn) [Norbo-16, endo.-N-(3-(4-(2-fluorophenyl)piperazin-1-yl)propyl)bicyclo[2.2.1]hept-5-ene-2-carboxamide]	182 ± 5.5 **^,# %		41.5		0.0733	1.54	23.47	EC50 (5-HT1A receptor; [7]): 0.939 µM
O=C(NCCCN1CCN(c2ccc(F)cc2)CC1)C1CC2C=CC1C2 (stereo not drawn) [Norbo-17, Exo-N-(3-(4-(4-fluorophenyl)piperazin-1-yl)propyl)bicyclo[2.2.1]hept-5-ene-2-carboxamide]	122 ± 2.0 ^&&& %	0.631	59.5	60.3	0.0227	2.36	32.50	EC50 (5-HT1A receptor; [7]): 0.553 µM; Ki (human 5-HT2C receptor; ± SEM, read-out: 5-HT2C pKi (converted)): 2.4 µM
O=C(NCCCN1CCN(c2cccc(C(F)(F)F)c2)CC1)C1CC2C=CC1C2 (stereo not drawn) [Norbo-19, Exo-N-(3-(4-(3-(trifluoromethyl)phenyl)piperazin-1-yl)propyl)bicyclo[2.2.1]hept-5-ene-2-carboxamide]		0.316	144		0.0426	0.167	39.00	Emax (5-HT1A receptor; rat hippocampus homogenate, read-out: 5-HT1A Receptor G-Protein Stimulation Emax (%) ± SEM): 162 ± 2.1%
O=C(NCCCN1CCN(c2cccc(C(F)(F)F)c2)CC1)C1CC2C=CC1C2 (stereo not drawn) [Norbo-20, endo-N-(3-(4-(3-(trifluoromethyl)phenyl)piperazin-1-yl)propyl)bicyclo[2.2.1]hept-5-ene-2-carboxamide]	167 ± 1.4 %	0.2	52.7	56.2	0.0229	1.95	21.79	
O=C(NCCCN1CCN(C(=O)c2ccco2)CC1)C1CC2C=CC1C2 (stereo not drawn) [Norbo-28, endo-N-(3-(4-(furan-2-carbonyl)piperazin-1-yl)propyl)bicyclo[2.2.1]hept-5-ene-2-carboxamide]					1.07	3.93		5-HT1A Receptor G-Protein Stimulation pEC50 (5-HT1A receptor; rat hippocampus homogenate, ± SEM): no activity; agonist activity at the 5-HT1A receptor (5-HT1A receptor; result in words): no agonist activity; D2 receptor antagonistic activity IC50 (95% CI, µM) (D2 receptor): no activity; D2 receptor antagonistic activity pIC50 (M ± SEM) (D2 receptor): no activity
O=C1CC2(CCCC2)CC(=O)N1CCCCN1CCN(c2ncccn2)CC1 [buspirone, reference compound]								percentage of the open arm entries (EPM) (mice [2]): significant increase; percentage of time spent in open arms (EPM) (mice [2]): significant increase; percentage of the open arm entries (EPM) (mice [2]; listed as Buspirone): increased the percentage of entries into the open arms; percentage of time spent in open arms (EPM) (mice [2]; listed as Buspirone): prolonged the time
CN[C@H]1CC[C@@H](c2ccc(Cl)c(Cl)c2)c2ccccc21 [sertraline, reference compound]								immobility time in FST (mice [3]): significant reduction in the immobility time; immobility time in FST (mice [3]; listed as Sertraline): significantly shortened the immobility time
NC1=N[C@H](O)[C@H]2[C@H]3O[C@]4(O)O[C@@H]([C@@H](O)[C@@]2(N1)[C@@H]4O)[C@]3(O)CO [tetrodotoxin, reference compound]								effect on contractions induced by 5-HT [1]: did not affect the contractions by 5-HT
